Data reported in PubChem BioAssay AID1259407 (Chemical Carcinogenesis Research Information System (CCRIS), 2018).
Active and inactive are the calls of the source. The rule behind the calls is not given here.

System: CCRIS mutagenicity, Ames/micronucleus/aberration tests
Assay: CCRIS mutagenicity studies
[1] = Test System: AMES SALMONELLA TYPHIMURIUM, Strain/Indicator: TA100, Metabolic Activation: NONE, Method: PREINCUBATION
[2] = Test System: AMES SALMONELLA TYPHIMURIUM, Strain/Indicator: TA100, Metabolic Activation: RAT, LIVER, S-9, AROCLOR 1254, Method: STANDARD PLATE
[3] = Test System: AMES SALMONELLA TYPHIMURIUM, Strain/Indicator: TA98, Metabolic Activation: RAT, LIVER, S-9, AROCLOR 1254, Method: STANDARD PLATE
[4] = Test System: AMES SALMONELLA TYPHIMURIUM, Strain/Indicator: TA100, Metabolic Activation: NONE, Method: STANDARD PLATE
[5] = Test System: AMES SALMONELLA TYPHIMURIUM, Strain/Indicator: TA98, Metabolic Activation: NONE, Method: PREINCUBATION

In the case of C#CC1(O)CC[C@H]2[C@@H]3CCC4=CCCC[C@@H]4[C@H]3CC[C@@]21C (stereo partly drawn), the mutagenic call (End Point: IN VIVO CHROMOSOMAL ABERRATIONS, Test System: BONE MARROW CELLS, Species: MOUSE, Strain/Sex: SWISS ALBINO/FEMALE, Route: IP INJECTION) was “active; positive (structural changes)”.

In the case of CC12OOC1(C)c1ccccc1O2 (stereo not drawn), the mutagenic call [1] was “active; positive” and the mutagenic call (Test System: AMES SALMONELLA TYPHIMURIUM, Strain/Indicator: TA2638, Metabolic Activation: NONE, Method: PREINCUBATION) was “inactive; negative”.

For O.O=C([O-])c1ccccn1.O=C([O-])c1ccccn1.O=C([O-])c1ccccn1.[Cr+3], the mutagenic call (End Point: In vivo micronucleus, Test System: Peripheral blood normochromatic erythrocytes, Species: Mouse, Strain/Sex: B6C3F1/Female, Route: Oral) was “inactive; negative”, the mutagenic call (End Point: In vivo micronucleus, Test System: Peripheral blood normochromatic erythrocytes, Species: Mouse, Strain/Sex: B6C3F1/Male, Route: Oral) was “inactive; negative” and the mutagenic call (Test System: Ames Salmonella typhimurium, Strain/Indicator: TA98, Metabolic Activation: None, Method: Preincubation) was “inactive; negative”. The mutagenic call (Test System: Ames Salmonella typhimurium, Strain/Indicator: TA98, Metabolic Activation: Rat, Liver, S-9, Aroclor 1254 (10%), Method: Preincubation) was “inactive; negative”, the mutagenic call (Test System: Ames Salmonella typhimurium, Strain/Indicator: TA98, Metabolic Activation: Rat, Liver, S-9, Phenobarbital and 5,6-benzoflavone, Method: Preincubation) was “inactive; negative” and the mutagenic call (Test System: Ames Salmonella typhimurium, Strain/Indicator: TA100, Metabolic Activation: None, Method: Preincubation) was “inactive; negative”. The mutagenic call (Test System: Ames Salmonella typhimurium, Strain/Indicator: TA100, Metabolic Activation: Rat, Liver, S-9, Aroclor 1254 (10%), Method: Preincubation) was “inactive; negative”, the mutagenic call (Test System: Ames Salmonella typhimurium, Strain/Indicator: TA100, Metabolic Activation: Rat, Liver, S-9, Phenobarbital and 5,6-benzoflavone, Method: Preincubation) was “inactive; negative” and the mutagenic call (Test System: Ames Salmonella typhimurium, Strain/Indicator: TA1535, Metabolic Activation: None, Method: Preincubation) was “inactive; negative”. The mutagenic call (Test System: Ames Salmonella typhimurium, Strain/Indicator: TA1535, Metabolic Activation: Rat, Liver, S-9, Phenobarbital and 5,6-benzoflavone, Method: Preincubation) was “inactive; negative”, the mutagenic call (Test System: Ames Salmonella typhimurium, Strain/Indicator: TA1537, Metabolic Activation: None, Method: Preincubation) was “inactive; negative” and the mutagenic call (Test System: Ames Salmonella typhimurium, Strain/Indicator: TA1537, Metabolic Activation: Rat, Liver, S-9, Phenobarbital and 5,6-benzoflavone, Method: Preincubation) was “inactive; negative”. The mutagenic call (Test System: E. coli, Strain/Indicator: WP2 uvrA/pKM101, Metabolic Activation: None, Method: Preincubation) was “inactive; negative”, the mutagenic call (Test System: E. coli, Strain/Indicator: WP2uvrA/pKM101, Metabolic Activation: None, Method: Preincubation) was “inactive; negative” and the mutagenic call (Test System: E. coli, Strain/Indicator: WP2 uvrA/pKM101, Metabolic Activation: Rat, Liver, S-9, Aroclor 1254 (10%), Method: Preincubation) was “inactive; negative”. The mutagenic call (Test System: E. coli, Strain/Indicator: WP2uvrA/pKM101, Metabolic Activation: Rat, Liver, S-9, Phenobarbital and 5,6-benzoflavone, Method: Preincubation) was “inactive; negative”.

With Cc1ccc2c(ccc3[nH]c4ccc5ccccc5c4c32)c1 the mutagenic call [2] was “active; positive”.

With O=C1c2ccc(O)c(O)c2C(=O)c2c(O)ccc(O)c21 the mutagenic call [3] was “inactive; negative”, the mutagenic call [4] was “inactive; negative” and the mutagenic call [2] was “inactive; negative”. For the same compound, the mutagenic call (Test System: AMES SALMONELLA TYPHIMURIUM, Strain/Indicator: TA1535, Metabolic Activation: NONE, Method: STANDARD PLATE) was “inactive; negative”, the mutagenic call (Test System: AMES SALMONELLA TYPHIMURIUM, Strain/Indicator: TA1535, Metabolic Activation: RAT, LIVER, S-9, AROCLOR 1254, Method: STANDARD PLATE) was “inactive; negative” and the mutagenic call (Test System: AMES SALMONELLA TYPHIMURIUM, Strain/Indicator: TA1537, Metabolic Activation: NONE, Method: STANDARD PLATE) was “active; positive”. The mutagenic call (Test System: AMES SALMONELLA TYPHIMURIUM, Strain/Indicator: TA1537, Metabolic Activation: RAT, LIVER, S-9, AROCLOR 1254, Method: STANDARD PLATE) was “active; positive” and the mutagenic call (Test System: AMES SALMONELLA TYPHIMURIUM, Strain/Indicator: TA1538, Metabolic Activation: RAT, LIVER, S-9, AROCLOR 1254, Method: STANDARD PLATE) was “inactive; negative”.

In the case of Cc1c(O)cc2c(c1O)C(=O)c1cccc(O)c1C2=O, the mutagenic call [5] was “inactive; negative”, the mutagenic call (Test System: AMES SALMONELLA TYPHIMURIUM, Strain/Indicator: TA98, Metabolic Activation: RAT, LIVER, S-9, PCB, Method: PREINCUBATION) was “active; positive” and the mutagenic call [1] was “inactive; negative”. The mutagenic call (Test System: AMES SALMONELLA TYPHIMURIUM, Strain/Indicator: TA100, Metabolic Activation: RAT, LIVER, S-9, PCB, Method: PREINCUBATION) was “active; positive”.

With CN1CCCC1=O the mutagenic call (Test System: AMES SALMONELLA TYPHIMURIUM, Strain/Indicator: TA97, Metabolic Activation: NONE, Method: STANDARD PLATE) was “inactive; negative”, the mutagenic call (Test System: AMES SALMONELLA TYPHIMURIUM, Strain/Indicator: TA97, Metabolic Activation: RAT, LIVER, S-9, AROCLOR 1254, Method: STANDARD PLATE) was “inactive; negative” and the mutagenic call [5] was “inactive; negative”. The mutagenic call (Test System: AMES SALMONELLA TYPHIMURIUM, Strain/Indicator: TA98, Metabolic Activation: NONE, Method: STANDARD PLATE) was “inactive; negative”, the mutagenic call (Test System: AMES SALMONELLA TYPHIMURIUM, Strain/Indicator: TA98, Metabolic Activation: RAT, LIVER, S-9, AROCLOR 1254, Method: PREINCUBATION) was “inactive; negative” and the mutagenic call [3] was “inactive; negative”. For the same compound, the mutagenic call [4] was “inactive; negative”, the mutagenic call [2] was “inactive; negative” and the mutagenic call (Test System: AMES SALMONELLA TYPHIMURIUM, Strain/Indicator: TA102, Metabolic Activation: NONE, Method: STANDARD PLATE) was “inactive; negative”. The mutagenic call (Test System: AMES SALMONELLA TYPHIMURIUM, Strain/Indicator: TA102, Metabolic Activation: RAT, LIVER, S-9, AROCLOR 1254, Method: STANDARD PLATE) was “inactive; negative”, the mutagenic call (Test System: AMES SALMONELLA TYPHIMURIUM, Strain/Indicator: TA104, Metabolic Activation: NONE, Method: PREINCUBATION) was “inactive; negative” and the mutagenic call (Test System: AMES SALMONELLA TYPHIMURIUM, Strain/Indicator: TA104, Metabolic Activation: NONE, Method: STANDARD PLATE) was “inactive; negative”. The mutagenic call (Test System: AMES SALMONELLA TYPHIMURIUM, Strain/Indicator: TA104, Metabolic Activation: RAT, LIVER, S-9, AROCLOR 1254, Method: PREINCUBATION) was “inactive; negative”, the mutagenic call (Test System: AMES SALMONELLA TYPHIMURIUM, Strain/Indicator: TA104, Metabolic Activation: RAT, LIVER, S-9, AROCLOR 1254, Method: STANDARD PLATE) was “inactive; negative” and the mutagenic call (Test System: AMES SALMONELLA TYPHIMURIUM, Strain/Indicator: TA2638, Metabolic Activation: NONE, Method: STANDARD PLATE) was “inactive; negative”. For the same compound, the mutagenic call (Test System: AMES SALMONELLA TYPHIMURIUM, Strain/Indicator: TA2638, Metabolic Activation: RAT, LIVER, S-9, AROCLOR 1254, Method: STANDARD PLATE) was “inactive; negative”, the mutagenic call (Test System: AMES SALMONELLA TYPHIMURIUM, Strain/Indicator: UTH8413, Metabolic Activation: NONE, Method: STANDARD PLATE) was “inactive; negative” and the mutagenic call (Test System: AMES SALMONELLA TYPHIMURIUM, Strain/Indicator: UTH8413, Metabolic Activation: RAT, LIVER, S-9, AROCLOR 1254, Method: STANDARD PLATE) was “inactive; negative”. The mutagenic call (Test System: AMES SALMONELLA TYPHIMURIUM, Strain/Indicator: UTH8414, Metabolic Activation: NONE, Method: STANDARD PLATE) was “inactive; negative” and the mutagenic call (Test System: AMES SALMONELLA TYPHIMURIUM, Strain/Indicator: UTH8414, Metabolic Activation: RAT, LIVER, S-9, AROCLOR 1254, Method: STANDARD PLATE) was “inactive; negative”.

With c1ccc2nc3c4ccccc4c4ccccc4c3cc2c1 the mutagenic call (Test System: AMES SALMONELLA TYPHIMURIUM, Strain/Indicator: TA100, Metabolic Activation: RAT, LIVER, S-9, PHENOBARBITAL AND 5,6-BENZOFLAVONE, Method: STANDARD PLATE) was “active; positive”.
